Values quoted from earlier work, collected in PubChem BioAssay AID1259409 (Chemical Carcinogenesis Research Information System (CCRIS), 2018).
Where “and” joins values, the source holds several entries; their conditions need not be identical. Equal entries are not always repeated.

Test system: rodent chemically induced tumor inhibition, incidence and multiplicity
Experiment: CCRIS tumor inhibitor studies
Settings: Carcinogen: 7,12-DIMETHYLBENZ[A]ANTHRACENE, 57-97-6, Route [Inhibitor]: DERMAL, Species: MOUSE, Target Tissue: Type of Lesion: SKIN: PAPILLOMA, Promoter: 12-O-TETRADECANOYLPHORBOL-13-ACETATE, 16561-29-8

CC1=C(/C=C/C(C)=C/C=C/C(C)=C/C(=O)O)C(C)(C)CCC1
tumour outcome (control, treated, inhibition, significance) (Dose [Inhibitor]: 17 NMOL IN 0.2 ML ACETONE 1 HR PRIOR TO EACH PROMOTER DOSE BEGINNING AT WEEK 10 OF PROMOTION AND CONTINUING FOR DURATION, Strain/Sex: CD-1/FEMALE, Dose [Carcinogen]: 200 NMOL IN 0.2 ML ACETONE ONCE): 100%, 95%, 5%, p>0.3 | tumour outcome (control, treated, inhibition, significance) (Dose [Inhibitor]: 17 NMOL IN 0.2 ML ACETONE 1 HR PRIOR TO EACH PROMOTER DOSE FOR 12 WK (STUDY DURATION: 14 WK), Strain/Sex: SENCAR/FEMALE, Dose [Carcinogen]: 200 NMOL IN 0.2 ML ACETONE ONCE): 100%, 87%, 13%, not calculated | tumour outcome (control, treated, inhibition, significance) (Dose [Inhibitor]: 17 NMOL IN 0.2 ML ACETONE 1 HR PRIOR TO EACH PROMOTER DOSE FOR 20 WK (STUDY DURATION: 22 WK), Strain/Sex: CD-1/FEMALE, Dose [Carcinogen]: 200 NMOL IN 0.2 ML ACETONE ONCE): 94%, 62%, 34%, not calculated | tumour outcome (control, treated, inhibition, significance) (Dose [Inhibitor]: 17 NMOL IN 0.2 ML ACETONE 1 HR PRIOR TO EACH PROMOTER DOSE FOR DURATION OF STUDY (STUDY DURATION: 27 WK), Strain/Sex: CD-1/FEMALE, Dose [Carcinogen]: 200 NMOL IN 0.2 ML ACETONE ONCE): 100%, 60%, 40%, p<0.02 | tumour outcome (control, treated, inhibition, significance) (Dose [Inhibitor]: 17 NMOL IN 0.2 ML ACETONE 1 HR PRIOR TO EACH PROMOTER DOSE FOR FIRST 10 WK OF PROMOTION (STUDY DURATION: 27 WK), Strain/Sex: CD-1/FEMALE, Dose [Carcinogen]: 200 NMOL IN 0.2 ML ACETONE ONCE): 100%, 90%, 10%, p>0.3 | tumour outcome (control, treated, inhibition, significance) (Dose [Inhibitor]: 17 NMOL IN 0.2 ML ACETONE 2/WK 1 HR BEFORE EACH PROMOTER APPLICATION STARTING 14 D AFTER CARCINOGEN APPLICATION AND CONT, Strain/Sex: CD-1/FEMALE, Dose [Carcinogen]: 0.2 UMOL IN 0.2 ML ACETONE ONCE): 98%, 42%, 57%, not calculated | tumour outcome (control, treated, inhibition, significance) (Dose [Inhibitor]: 17 NMOL IN 0.2 ML ACETONE 2/WK 1 HR BEFORE EACH PROMOTER APPLICATION STARTING 14 D AFTER CARCINOGEN APPLICATION AND CONT, Strain/Sex: CD-1/FEMALE, Dose [Carcinogen]: 0.2 UMOL ONCE): 100%, 80%, 20%, not significant | tumour outcome (control, treated, inhibition, significance) (Dose [Inhibitor]: 17 NMOL IN 0.2 ML ACETONE 2/WK 24 HR AFTER EACH PROMOTER TREATMENT STARTING 14 D AFTER CARCINOGEN TREATMENT AND CONTINUI, Strain/Sex: CD-1/FEMALE, Dose [Carcinogen]: 0.2 UMOL IN 0.2 ML ACETONE ONCE): 98%, 96%, 2%, not significant | tumour outcome (control, treated, inhibition, significance) (Dose [Inhibitor]: 34 NMOL IN 0.2 ML ACETONE 2/WK 1 HR BEFORE EACH PROMOTER APPLICATION STARTING 14 D AFTER CARCINOGEN APPLICATION AND CONT, Strain/Sex: CD-1/FEMALE, Dose [Carcinogen]: 0.2 UMOL IN 0.2 ML ACETONE ONCE): 90%, 55%, 39%, not calculated and 90%, 48%, 47%, not calculated | tumour outcome (control, treated, inhibition, significance) (Dose [Inhibitor]: 68 NMOL IN 0.2 ML ACETONE 2/WK 1 HR BEFORE EACH PROMOTER APPLICATION STARTING 14 D AFTER CARCINOGEN APPLICATION AND CONT, Strain/Sex: CD-1/FEMALE, Dose [Carcinogen]: 0.2 UMOL IN 0.2 ML ACTEONE ONCE): 95%, 53%, 44%, not calculated
